Measurements reported in patent US20260070945A1, “MACROCYCLIC IMMUNOMODULATORS” (Bristol-Myers Squibb Company, priority 2022, published 2026).
pIC50: −log10 of the molar value. *1 amine or outer side, *2 acyl side, *3 side chain or, on linkers, in order; H or OH if unused. Where a SMILES comes first, the peptide text is derived from it. Bridges are numbered along the chain shown (N, C = ends). [ ]: non-standard residue; d: D form. The star is where a group is joined. ξ: configuration not given here. Phe(4-CH2CH2COOH) = N[C@@H](Cc1ccc(CCC(=O)O)cc1)C(=O)O; X10 = O=C(O)COc1ccc(C[C@H](CC(=O)C[*:2])C(=O)[*:1])cc1; Phe(3-CF3) = N[C@@H](Cc1cccc(C(F)(F)F)c1)C(=O)O; Phe(4-CF3) = N[C@@H](Cc1ccc(C(F)(F)F)cc1)C(=O)O; Ala(morpholin-4-yl) = N[C@@H](CN1CCOCC1)C(=O)O; Phe(4-COOH) = N[C@@H](Cc1ccc(C(=O)O)cc1)C(=O)O; Bip = N[C@@H](Cc1ccc(-c2ccccc2)cc1)C(=O)O; Phe(3-F) = N[C@@H](Cc1cccc(F)c1)C(=O)O; Phe(3-Me) = Cc1cccc(C[C@H](N)C(=O)O)c1; γGlu = O=C(O)[C@H](CCC(=O)[*:2])N[*:1]; NH(CH2)12COOH = O=C(O)CCCCCCCCCCCCN*; Val(3-OH) = CC(C)(O)[C@H](N)C(=O)O; NHhexadecyl = CCCCCCCCCCCCCCCCN*; 4Pal = N[C@@H](Cc1ccncc1)C(=O)O; X1 = O=C(CN1CCN([*:1])CC1)[*:2]; Cha = N[C@@H](CC1CCCCC1)C(=O)O; Cit = NC(=O)NCCC[C@H](N)C(=O)O; Ile(3ξ) = CCC(C)[C@H](N)C(=O)O; Carboxymethyl = O=C(O)C*; NMeA = CN[C@@H](C)C(=O)O; Orn = NCCC[C@H](N)C(=O)O; Aun = NCCCCCCCCCCC(=O)O; Dab = NCC[C@H](N)C(=O)O; Dap = NC[C@H](N)C(=O)O; AEEA = NCCOCCOCC(=O)O; Piv = CC(C)(C)C(=O)*; ξV = CC(C)C(N)C(=O)O

The molecules below were run against T1, PD-1/PD-L1 interaction (PE-labeled human PD-L1-Ig binding to Jurkat cell line over-expressing human PD-1) (Homo sapiens, UniProt Q15116) (assay: Jurkat-PD-1 Cell Binding High-Content Screening Assay (CBA)). Settings: Jurkat-hPD-1 cells, PE-labeled PD-L1-Ig 20 nM final; read-out: Jurkat HPD1 PDL1 IC50.
T1 construct: expressed in transfected cells; host or cells: Jurkat
T1 sequence (Q15116 25-288): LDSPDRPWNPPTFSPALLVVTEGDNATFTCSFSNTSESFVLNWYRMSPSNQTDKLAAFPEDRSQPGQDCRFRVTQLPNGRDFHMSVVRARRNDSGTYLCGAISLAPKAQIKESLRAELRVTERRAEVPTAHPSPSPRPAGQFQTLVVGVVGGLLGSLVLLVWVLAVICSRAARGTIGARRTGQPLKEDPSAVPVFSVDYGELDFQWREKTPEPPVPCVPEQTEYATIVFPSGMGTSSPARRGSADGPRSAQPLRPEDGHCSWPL
In short: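 High-content imaging read-out of PE-PD-L1-Ig binding (20 nM final, 1 h) to Jurkat-hPD-1 cells, after 2 h compound exposure at 37 °C in DMEM with 10% FCS. Nuclei counterstained with Hoechst 33342 after paraformaldehyde fixation.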

| pIC50 | Compound |
| --- | --- |
| 7.81 | CC(C)C[C@H]1NC(=O)[C@H](C)N(C)C(=O)[C@H](CCCNC(N)=O)NC(=O)[C@H](Cc2ccc(-c3ccccc3)cc2)NC(=O)[C@H](Cc2ccc(C(=O)O)cc2)NC(=O)[C@H](Cc2cccc(C(F)(F)F)c2)NC(=O)[C@H](CC(=O)O)NC(=O)[C@H](Cc2ccc(OCC(=O)O)cc2)NC(=O)[C@H](CN2CCOCC2)NC(=O)CSC[C@@H](C(=O)N[C@@H](CCN)C(=O)NCCCCCCCCCCCCC(=O)O)NC(=O)[C@H](Cc2c[nH]cn2)NC(=O)[C@H](C(C)(C)O)NC(=O)[C@H](CC2CCCCC2)NC(=O)[C@H](CCN)NC1=O [Example 1193] ({CH2CO}-[Ala(morpholin-4-yl)]Y(Carboxymethyl)D[Phe(3-CF3)][Phe(4-COOH)][Bip][Cit][NMeA][dL][Dab][Cha][Val(3-OH)]HC[Dab]-{NH(CH2)12COOH}; thioether N-14) |
| 7.23 | CC(C)C[C@@H]1NC(=O)[C@H](Cc2c[nH]c3ccccc23)NC(=O)[C@H](CC(=O)O)NC(=O)[C@H](Cc2ccc(OCC(=O)O)cc2)NC(=O)[C@H](Cc2ccccc2)NC(=O)CSC[C@@H](C(=O)N[C@@H](CCCN)C(=O)NCCCCCCCCCCC(=O)O)NC(=O)[C@H]([C@@H](C)O)NC(=O)[C@H](C(C)C)NC(=O)[C@H](CC(C)C)NC(=O)[C@H](CC(N)=O)NC(=O)[C@@H](CC(C)C)NC(=O)[C@H](C)N(C)C(=O)[C@H](C(C)C)NC(=O)[C@H](Cc2ccc(-c3ccccc3)cc2)NC1=O [Example 1335] ({CH2CO}-FY(Carboxymethyl)DWL[Bip]V[NMeA][dL]NLVTC[Orn][Aun]-OH; thioether N-14) |
| 7.30 | CC(=O)NCCCC[C@@H]1NC(=O)[C@H](C(C)(C)O)NC(=O)[C@H](CC2CCCCC2)NC(=O)[C@H](CCN)NC(=O)[C@@H](CC(C)C)NC(=O)[C@H](C)N(C)C(=O)[C@H](CCC(N)=O)NC(=O)[C@H](Cc2ccc(-c3ccccc3)cc2)NC(=O)[C@H](Cc2ccc(C(=O)O)cc2)NC(=O)[C@H](Cc2cccc(C(F)(F)F)c2)NC(=O)[C@H](CC(=O)O)NC(=O)[C@H](Cc2ccc(OCC(=O)O)cc2)NC(=O)[C@H](Cc2ccc(C(=O)O)cc2)NC(=O)CSC[C@@H](C(=O)N[C@@H](CCN)C(=O)NCCOCCOCC(=O)N[C@@H](CCC(=O)NCCOCCOCC(=O)NCCCCCCCCCCCCC(=O)O)C(=O)O)NC1=O [Example 1185] ({CH2CO}-[Phe(4-COOH)]Y(Carboxymethyl)D[Phe(3-CF3)][Phe(4-COOH)][Bip]Q[NMeA][dL][Dab][Cha][Val(3-OH)]K(Ac)C[Dab][AEEA][γGlu][AEEA]-{NH(CH2)12COOH}; thioether N-14) |
| 6.74 | CC(C)C[C@@H]1NC(=O)[C@H](Cc2c[nH]c3ccccc23)NC(=O)[C@H](CC(=O)O)NC(=O)[C@H](Cc2ccncc2)NC(=O)[C@H](Cc2ccc(OCC(=O)O)cc2)NC(=O)CSC[C@@H](C(=O)N2CCN(CC(=O)NCCCCCCCCCCC(=O)O)CC2)NC(=O)[C@H](CCCNC(N)=O)NC(=O)[C@H](C(C)C)NC(=O)[C@H](CC2CCCCC2)NC(=O)[C@H](CCN)NC(=O)[C@@H](CC(C)C)NC(=O)[C@H](C)N(C)C(=O)[C@H](C(C)C)NC(=O)[C@H](Cc2ccc(-c3ccccc3)cc2)NC1=O [Example 1220] ({CH2CO}-Y(Carboxymethyl)[4Pal]DWL[Bip]V[NMeA][dL][Dab][Cha]V[Cit]C[X1][Aun]-OH; thioether N-14) |
| 7.04 | Cc1cccc(C[C@@H]2NC(=O)[C@H](CC(=O)O)NC(=O)[C@H](Cc3ccc(C(=O)O)cc3)NC(=O)[C@H](Cc3ccc(OCC(=O)O)cc3)NC(=O)CSC[C@@H](C(=O)N[C@@H](CC(=O)O)C(=O)NCCCCCCCCCCC(=O)O)NC(=O)[C@H](CO)NC(=O)[C@H](C(C)C)NC(=O)[C@H](CC(C)C)NC(=O)[C@H](CC(N)=O)NC(=O)[C@@H](CC(C)C)NC(=O)[C@H](C)N(C)C(=O)[C@H](C(C)C)NC(=O)[C@H](Cc3ccc(-c4ccccc4)cc3)NC(=O)[C@H](CC(C)C)NC2=O)c1 [Example 1001] ({CH2CO}-Y(Carboxymethyl)[Phe(4-COOH)]D[Phe(3-Me)]L[Bip]V[NMeA][dL]NLVSCD[Aun]-OH; thioether N-14 (inferred)) |
| 7.84 | Cc1cccc(C[C@@H]2NC(=O)[C@H](CC(=O)O)NC(=O)[C@H](Cc3ccc(OCC(=O)O)cc3)NC(=O)[C@H](CN)NC(=O)CSC[C@@H](C(=O)N[C@@H](CCN)C(=O)NCCCCCCCCCCC(=O)O)NC(=O)[C@H]([C@@H](C)O)NC(=O)[C@H](C(C)C)NC(=O)[C@H](CC3CCCCC3)NC(=O)[C@H](CCN)NC(=O)[C@@H](CC(C)C)NC(=O)[C@H](C)N(C)C(=O)[C@H](CCCNC(N)=O)NC(=O)[C@H](Cc3ccc(-c4ccccc4)cc3)NC(=O)C(C(C)C)NC2=O)c1 (stereo partly drawn) [Example 1356] ({CH2CO}-[Dap]Y(Carboxymethyl)D[Phe(3-Me)][ξV][Bip][Cit][NMeA][dL][Dab][Cha]VTC[Dab][Aun]-OH; thioether N-14) |
| 7.72 | Cc1cccc(C[C@@H]2NC(=O)[C@H](CC(=O)O)NC(=O)[C@H](Cc3ccc(CCC(=O)O)cc3)NC(=O)[C@H](CCNC(=O)C(C)(C)C)NC(=O)CSC[C@@H](C(=O)N[C@@H](CCN)C(=O)NCCCCCCCCCCC(=O)O)NC(=O)[C@H]([C@@H](C)O)NC(=O)[C@H](C(C)C)NC(=O)[C@H](CC3CCCCC3)NC(=O)[C@H](CCN)NC(=O)[C@@H](CC(C)C)NC(=O)[C@H](C)N(C)C(=O)[C@H](Cc3ccc(OCC(=O)O)cc3)NC(=O)[C@H](Cc3ccc(-c4ccccc4)cc3)NC(=O)[C@H](Cc3ccc(C(=O)O)cc3)NC2=O)c1 [Example 1269] ({CH2CO}-[Dab](Piv)[Phe(4-CH2CH2COOH)]D[Phe(3-Me)][Phe(4-COOH)][Bip]Y(Carboxymethyl)[NMeA][dL][Dab][Cha]VTC[Dab][Aun]-OH; thioether N-14) |
| 6.77 | Cc1cccc(C[C@@H]2NC(=O)[C@H](CC(=O)O)NC(=O)[C@H](Cc3ccc(OCC(=O)O)cc3)NC(=O)[C@H](CN)NC(=O)CSC[C@@H](C(=O)N[C@@H](CCC(=O)O)C(=O)NCCCCCCCCCCC(=O)O)NC(=O)[C@H](CO)NC(=O)[C@H](C(C)C)NC(=O)[C@H](CC(C)C)NC(=O)[C@H](CC(N)=O)NC(=O)[C@@H](CC(C)C)NC(=O)[C@H](C)N(C)C(=O)[C@H](C(C)C)NC(=O)[C@H](Cc3ccc(-c4ccccc4)cc3)NC(=O)[C@H](CC(C)C)NC2=O)c1 [Example 1068] ({CH2CO}-[Dap]Y(Carboxymethyl)D[Phe(3-Me)]L[Bip]V[NMeA][dL]NLVSCE[Aun]-OH; thioether N-14) |
| 7.84 | CC(C)C[C@@H]1NC(=O)[C@H](Cc2c[nH]c3ccccc23)NC(=O)[C@H](CC(=O)O)NC(=O)[C@H](Cc2ccc(C(=O)O)cc2)NC(=O)[C@H](Cc2ccc(OCC(=O)O)cc2)NC(=O)CSC[C@@H](C(=O)NCCOCCOCC(=O)NCCCCCCCCCCC(=O)O)NC(=O)[C@H](CN)NC(=O)[C@H](C(C)C)NC(=O)[C@H](CC2CCCCC2)NC(=O)[C@H](CCN)NC(=O)[C@@H](CC(C)C)NC(=O)[C@H](C)N(C)C(=O)[C@H](C(C)C)NC(=O)[C@H](Cc2ccc(-c3ccccc3)cc2)NC1=O [Example 1093] ({CH2CO}-Y(Carboxymethyl)[Phe(4-COOH)]DWL[Bip]V[NMeA][dL][Dab][Cha]V[Dap]C[AEEA][Aun]-OH; thioether N-14) |
| 6.42 | Cc1cccc(C[C@@H]2NC(=O)[C@H](CC(=O)O)NC(=O)[C@H](Cc3ccc(OCC(=O)O)cc3)NC(=O)[C@H]([C@@H](C)O)NC(=O)CSC[C@@H](C(=O)N[C@H](C)C(=O)NCCOCCOCC(=O)NCCCCCCCCCCC(=O)O)NC(=O)[C@H](CCC(=O)O)NC(=O)[C@H](C(C)(C)O)NC(=O)[C@H](CC3CCCCC3)NC(=O)[C@H](CCN)NC(=O)[C@@H](CC(C)C)NC(=O)[C@H](C)N(C)C(=O)[C@H](Cc3ccc(OCC(=O)O)cc3)NC(=O)[C@H](Cc3ccc(-c4ccccc4)cc3)NC(=O)[C@H](Cc3ccc(OCC(=O)O)cc3)NC2=O)c1 [Example 1417] ({CH2CO}-TY(Carboxymethyl)D[Phe(3-Me)]Y(Carboxymethyl)[Bip]Y(Carboxymethyl)[NMeA][dL][Dab][Cha][Val(3-OH)]EC[dA][AEEA][Aun]-OH; thioether N-14) |

Same assay, conditions: PE-labeled PD-L1-Ig 20 nM final, Jurkat-hPD-1 cells; read-out: Jurkat HPD1 PDL1 IC50

| pIC50 | Compound |
| --- | --- |
| 7.41 | CCCCCCCCCCCCCCCCNC(=O)CC[C@H](NC(=O)COCCOCCNC(=O)[C@H](CCN)NC(=O)[C@@H]1CSCC(=O)C[C@@H](Cc2ccc(OCC(=O)O)cc2)C(=O)N[C@@H](Cc2ccc(OCC(=O)O)cc2)C(=O)N[C@@H](CC(=O)O)C(=O)N[C@@H](Cc2cccc(C(F)(F)F)c2)C(=O)N[C@@H](Cc2ccc(C(=O)O)cc2)C(=O)N[C@@H](Cc2ccc(-c3ccccc3)cc2)C(=O)N[C@@H](CCC(N)=O)C(=O)N(C)[C@@H](C)C(=O)N[C@H](CC(C)C)C(=O)N[C@@H](CCN)C(=O)N[C@@H](CC2CCCCC2)C(=O)N[C@@H](C(C)(C)O)C(=O)N[C@@H](CCCCNC(C)=O)C(=O)N1)C(=O)O [Example 2641] (Y(Carboxymethyl)D[Phe(3-CF3)][Phe(4-COOH)][Bip]Q[NMeA][dL][Dab][Cha][Val(3-OH)]K(Ac)C[Dab][AEEA]E(NHhexadecyl)-OH; linker N-13 via X10) |
| 7.05 | CCC(C)[C@@H]1NC(=O)[C@H](Cc2ccc(-c3ccccc3)cc2)NC(=O)[C@H](Cc2ccc(C(F)(F)F)cc2)NC(=O)[C@H](Cc2cccc(F)c2)NC(=O)[C@H](CC(=O)O)NC(=O)[C@H](Cc2ccc(OCC(=O)O)cc2)NC(=O)[C@H](Cc2cnc[nH]2)NC(=O)CSC[C@@H](C(=O)N[C@@H](CCN)C(=O)NCCOCCOCC(=O)NCCCCCCCCCCC(=O)O)NC(=O)[C@H](CCC(=O)O)NC(=O)[C@H](C(C)C)NC(=O)[C@H](CC2CCCCC2)NC(=O)[C@H](CCN)NC(=O)[C@@H](CC(C)C)NC(=O)[C@H](C)N(C)C1=O (stereo partly drawn) [Example 2592] ({CH2CO}-HY(Carboxymethyl)D[Phe(3-F)][Phe(4-CF3)][Bip][Ile(3ξ)][NMeA][dL][Dab][Cha]VEC[Dab][AEEA][Aun]-OH; thioether N-14) |
